Earlier results on eight compounds are cited in patent US4923986A, “Derivatives of physiologically active substance K-252” (Kyowa Hakko Kogyo Co., Ltd., priority 1988, dated 1990).

In one data set the test system is histamine release. Conditions: literature, in words; cited from earlier work.
For data set [1] the following is noted: literature, in words; cited from earlier work.
For data set [2] the following is noted: literature, in words; cited from earlier work. This is another data set of the same source.
The test system of a further data set is C-kinase. Conditions: literature, in words; cited from earlier work.

Take `COC(=O)[C@@]1(O)C[C@H]2O[C@]1(C)n1c3ccccc3c3c4c(c5c6ccccc6n2c5c31)C(=O)NC4` (relative stereo) [Compound K-252]: the “activity to inhibit histamine release” value with histamine release is given as “activity to inhibit histamine release”. Further, the antibacterial activity entry in data set [1] is “antibacterial substances”. In data set [2], the anti-allergic activity entry was “anti-allergic activity”.
On to `C[C@]12O[C@H](C[C@]1(O)C(=O)O)n1c3ccccc3c3c4c(c5c6ccccc6n2c5c31)CNC4=O` (relative stereo) [KT-5556], for which the “activity to inhibit histamine release” value in the data set on histamine release was “activity to inhibit histamine release”. Also, in data set [1], the antibacterial activity entry is given as “antibacterial substances”.
Regarding `NCCCCCCNS(=O)(=O)c1cccc2c(Cl)cccc12` [Compound W-7, N-(6-aminohexy)-5-chloro-1-naphthalenesulfonamide], in the data set on C-kinase, the C-kinase inhibitory activity entry is reported as “low”.
On to `CN[C@@H]1C[C@H]2O[C@@](C)([C@@H]1OC)n1c3ccccc3c3c4c(c5c6ccccc6n2c5c31)C(=O)NC4` [Staurosporine], for which the antibacterial activity entry in data set [1] is given as “antibacterial activity”.
As for `CN(C)CCCN1c2ccccc2Sc2ccc(Cl)cc21` [chlorpromazine], the C-kinase inhibitory activity entry in the data set with C-kinase is recorded as “low”.
Take `ClCCN(Cc1ccccc1)Cc1ccccc1` [dibenamine]: the C-kinase inhibitory activity entry in the data set with C-kinase is “low”.
Turning to `CCCCNc1ccc(C(=O)OCCN(C)C)cc1` [tetracaine], the C-kinase inhibitory activity entry in the data set on C-kinase is “low”.
Regarding `CN1CCN(CCCN2c3ccccc3Sc3ccc(C(F)(F)F)cc32)CC1` [trifluoperazine], in the data set on C-kinase, the C-kinase inhibitory activity entry is reported as “low”.
